# Source: PubChem BioAssay (NCI)
#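 Method: 48-hour compound exposure of cells in 96-well plates, five concentrations, linear interpolation of endpoints. TGI is the concentration that stops growth completely.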
# Assays:
# Test in all cases: growth of human tumour cells (NCI), 48 h
# [1] = tested on: A549 NSCLC
# [2] = tested on: HOP-62 NSCLC
# [3] = tested on: LOX IMVI melanoma
# [4] = tested on: M14 melanoma
# [5] = tested on: MDA-N
# [6] = tested on: NCI/ADR-RES ovarian
# [7] = tested on: OVCAR-4 ovarian
# [8] = tested on: SF-295 CNS
# [9] = tested on: SN12C renal
# [10] = tested on: SNB-75 CNS
SMILES,TGI [1] [µM],TGI [2] [µM],TGI [3] [µM],TGI [4] [µM],TGI [5] [µM],TGI [6] [µM],TGI [7] [µM],TGI [8] [µM],TGI [9] [µM],TGI [10] [µM]
CCOC(=O)C(NC(=O)CC)(Nc1ccc(S(=O)(=O)Nc2nc(C)cc(C)n2)cc1)C(F)(F)F (stereo unspecified),> 100,> 100,> 100,> 100,> 100,> 100,> 100,> 100,> 100,> 100
CCC(=O)NC(OCC1(CC)COC1)(C(F)(F)F)C(F)(F)F,–,> 100,> 100,> 100,> 100,–,–,–,> 100,> 100
Cc1cc(S(=O)(=O)Nc2nc3ccccc3n2-c2ccccc2)c(S)cc1Cl,> 100,–,> 100,> 100,> 100,> 100,> 100,> 100,–,> 100
CCN1CCCC(Nc2cc(C)nc(/N=C(/N)Nc3ccc(Cl)c(Cl)c3)n2)C1 (stereo unspecified),4.22,2.88,–,0.684,3.16,8.58,4.97,2.41,6.64,2.71
COc1nc(OC)nc(-c2cccc(F)c2)n1,52.6,45.7,43.7,36.4,–,31.7,39.6,30,31.5,44.4
COc1cc(OC)c2c(O)c(S(=O)(=O)c3ccc(C)cc3)c(=O)oc2c1,> 100,–,–,> 100,–,> 100,> 100,> 100,> 100,> 100
Oc1ccc(Cl)cc1C1=N/C(=N\C/N=C2\N=C(c3cc(Cl)ccc3O)CC(c3ccccc3)N2)NC(c2ccccc2)C1 (stereo unspecified),> 100,> 100,> 100,> 100,> 100,> 100,> 100,> 100,–,> 100
Cc1ccc(SC[C@@]2(C(F)F)NC(=O)NC2=O)cc1,> 100,> 100,> 100,> 100,–,> 100,> 100,> 100,–,> 100
O=S1(=O)C(c2ccccc2)=C(O)c2ccccc21,> 100,> 100,> 100,> 100,–,> 100,> 100,> 100,–,> 100
O=c1[nH]cnc2sc(=S)c3c(c12)CCC3,> 100,> 100,> 100,> 100,–,> 100,> 100,> 100,> 100,> 100
Cc1ccnc(NC(=S)Nc2cccc(Cl)c2)c1,> 100,> 100,> 100,> 100,–,> 100,> 100,> 100,> 100,> 100
COc1cccc(NC(=O)CC(=O)NNCC(=O)Nc2nnc(-c3ccc(N(CCC#N)S(=O)(=O)c4ccccc4)cc3)s2)c1,> 100,> 100,> 100,–,–,–,> 100,> 100,> 100,–
CSc1nc(C#N)c(N)n1C,> 100,> 100,> 100,> 100,> 100,> 100,> 100,> 100,> 100,–
CSc1ncc2c(n1)-c1ccccc1OC2NC(C)(C)C (stereo unspecified),> 100,> 100,> 100,> 100,–,–,> 100,> 100,> 100,88.1
CN(C)C(=O)C(F)(F)C(c1ccc(Br)cc1)C1C(=O)N(C)C(=O)N(C)C1=O (stereo unspecified),> 100,> 100,> 100,> 100,–,> 100,> 100,> 100,–,> 100
CC(=O)c1ccc(N2CCN(C3=CC(=O)c4c(O)ccc(O)c4C3=O)CC2)cc1,> 100,> 100,–,> 100,–,> 100,> 100,> 100,–,61.7
O=C1NC2CCCCC2N=C1/C(C(=O)c1ccccc1)=C(\O)c1ccccc1 (stereo unspecified),> 100,> 100,> 100,> 100,> 100,> 100,–,> 100,> 100,–
Clc1nc(Nc2nc3ccccc3[nH]2)nc(Cl)c1Cc1ccccc1,> 100,–,–,> 100,> 100,> 100,> 100,> 100,> 100,> 100
